In the experiment the target is T1, sRAGE (Homo sapiens, UniProt Q15109).
T1 construct: the soluble extracellular part of RAGE (sRAGE); purchased Abcam
Description: Microscale thermophoresis, interaction with sRAGE. Type of experiment: binding. Conditions: MST, Monolith NT.115; 50 nM RED-tris-NTA-labeled His-tag sRAGE; peptide 6.1 nM to 200 μM; 4% DMSO, 20% glycerol; mean ± SD, n = 4–5; read-out: dissociation constant (Kd) with sRAGE.

In general, Kd refers to a measure of binding affinity in units of concentration.

Ends that are not written are not given here.

T1 sequence (Q15109 23-342 limits assumed): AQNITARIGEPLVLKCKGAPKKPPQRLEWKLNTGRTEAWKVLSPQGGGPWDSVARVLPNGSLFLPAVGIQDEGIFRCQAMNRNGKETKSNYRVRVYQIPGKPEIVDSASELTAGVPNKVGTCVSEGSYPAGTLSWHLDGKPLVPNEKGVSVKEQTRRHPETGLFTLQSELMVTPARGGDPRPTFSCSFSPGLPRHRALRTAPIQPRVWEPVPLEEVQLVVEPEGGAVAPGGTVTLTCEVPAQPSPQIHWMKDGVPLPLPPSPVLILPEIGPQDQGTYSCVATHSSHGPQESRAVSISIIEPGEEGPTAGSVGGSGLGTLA

Take LVFFAEDVGSNKGAIIGLMVGGVVIA [Aβ17 − 42]: the dissociation constant Kd was determined as 10 ± 5 µM.

These data come from paper PMC10954796, “Post-translational modifications of beta-amyloid alter its transport in the blood-brain barrier in vitro model” (Frontiers in Molecular Neuroscience, 2024).
